According to ChEMBL document CHEMBL3046834, “MODULATION OF FILARIAL GLUTATHIONE-S-TRANSFERASE(S) ACTIVITY: A POSSIBILITY TOWARDS THE SYNTHESIS OF NEW CLASSES OF ANTIFILARIAL AGENTS” (Med Chem Res, 2004):
Calls of active or inactive are those of the source. The calls are words filed in the database; no cut-off is given here.

Legend:
[1] = tested on: Brugia malayi; test: Antifilarial activity against Brugia malayi isolated from jird assessed as motility at 100 uM after 24 hr by dissecting microscopy; format: functional, organism-based
[2] = tested on: Brugia malayi; test: Antifilarial activity against Brugia malayi isolated from jird assessed as inhibition of MTT reduction at 100 uM after 1 hr; format: functional
[3] = tested on: GST (glutathione S-transferase); test: Inhibition of GST in Mus musculus (mouse) liver using CDNB as substrate at 100 uM after 10 min by spectrophotometric analysis relative to control; format: tissue-based; conditions: probe CDNB
[4] = Stimulation of GST in Mus musculus (mouse) liver using CDNB as substrate at 100 uM after 10 min by spectrophotometric analysis relative to control; format: ADME, tissue-based

Row | Structure (SMILES) | Activity [1] | inhibition at 100 µM [2] [%] | inhibition at 10 min, 100 µM [3] [%] | Activity [4] [%]
1 | COc1ccc(CN2C(=O)N(c3cccc(C(C)=O)c3)C(=O)CC2[C@H]2O[C@@H]3OC(C)(C)O[C@@H]3[C@H]2OC)cc1 (stereo not given in full) | inactive | 59 | 41 | –
2 | COc1ccc(CN2C(=O)N(c3cc(Cl)cc(Cl)c3)C(=O)CC2[C@H]2O[C@@H]3OC(C)(C)O[C@@H]3[C@H]2OCc2ccccc2)cc1 (stereo not given in full) | inactive | 92 | – | 12
3 | CO[C@@H]1[C@H]2OC(C)(C)O[C@H]2O[C@@H]1C1CC(=O)N(c2cccc(C#N)c2)C(=O)N1Cc1ccccc1 (stereo not given in full) | inactive | – | 32 | –
4 | CC1(C)O[C@@H]2OC(CNCCCCCCCCCCCCNCC3O[C@@H]4OC(C)(C)O[C@@H]4[C@H]3OCc3ccccc3)[C@@H](OCc3ccccc3)[C@@H]2O1 (stereo not given in full) | Active | 94 | – | –
5 | CO[C@@H]1C(C(CC(N)=O)NC(=O)Nc2ccc(C)c(Cl)c2)O[C@H]2OC(C)(C)O[C@H]21 (stereo not given in full) | inactive | – | – | –
6 | CCOC(=O)CC(NCCCCCCCNC(CC(=O)OCC)C1O[C@@H]2OC(C)(C)O[C@@H]2[C@H]1OCc1ccccc1)C1O[C@H]2OC(C)(C)O[C@H]2[C@@H]1OCc1ccccc1 (stereo not given in full) | Active | – | – | –
7 | CO[C@@H]1[C@H]2OC(C)(C)O[C@H]2O[C@@H]1C1CC(=O)N(Cc2ccccc2)C(=O)N1Cc1ccccc1 (stereo not given in full) | inactive | – | – | –
8 | CC1(C)O[C@H]2O[C@H](C3CC(=O)N(Cc4ccccc4)C(=O)N3Cc3ccc(Br)cc3)[C@H](OCc3ccccc3)[C@H]2O1 (stereo not given in full) | inactive | 24 | – | –
9 | CCOc1ccc(N2C(=O)CC([C@H]3O[C@@H]4OC(C)(C)O[C@@H]4[C@H]3OC)N(Cc3ccccc3)C2=O)cc1 (stereo not given in full) | inactive | 50 | – | –
10 | CO[C@@H]1[C@H]2OC(C)(C)O[C@H]2O[C@@H]1C1CC(=O)N(c2ccc(Br)cc2)C(=O)N1c1ccco1 (stereo not given in full) | inactive | 32 | 32 | –
11 | CCCCN1C(=S)N(c2ccccc2Cl)C(=O)CC1[C@H]1O[C@@H]2OC(C)(C)O[C@@H]2[C@H]1OC (stereo not given in full) | inactive | – | – | 64
12 | CC1(C)O[C@H]2O[C@H](C3CC(=O)N(Cc4ccccc4)C(=O)N3Cc3ccccc3)[C@H](OCc3ccccc3)[C@H]2O1 (stereo not given in full) | inactive | 65 | – | 13
13 | CCCCc1ccc(N2C(=O)CC([C@H]3O[C@@H]4OC(C)(C)O[C@@H]4[C@H]3OC)N(Cc3ccccc3)C2=O)cc1 (stereo not given in full) | inactive | 76 | 13 | –
14 | COc1ccc(CN2C(=O)N(Cc3ccccc3)C(=O)CC2[C@H]2O[C@@H]3OC(C)(C)O[C@@H]3[C@H]2OCc2ccccc2)cc1 (stereo not given in full) | inactive | – | – | –
15 | CC1(C)O[C@@H]2OC(CNCCCCCCCNCC3O[C@@H]4OC(C)(C)O[C@@H]4[C@H]3OCc3ccccc3)[C@@H](OCc3ccccc3)[C@@H]2O1 (stereo not given in full) | inactive | – | – | –
16 | COc1ccc(N(C(=O)NCc2ccccc2)[C@@H](CC(=O)O)C(=O)NC(CC(N)=O)C2O[C@H]3OC(C)(C)O[C@H]3[C@@H]2OC)cc1 (stereo not given in full) | inactive | – | – | –
17 | CCOC(=O)CC(NC(=O)[C@@H]1CCCN1C(=O)OCC1c2ccccc2-c2ccccc21)C1O[C@H]2OC(C)(C)O[C@H]2[C@@H]1OC (stereo not given in full) | Active | 37 | – | 197
18 | Cc1cc(N2C(=O)CC([C@H]3O[C@@H]4OC(C)(C)O[C@@H]4[C@H]3OCc3ccccc3)N(Cc3ccc(Br)cc3)C2=O)ccc1Cl (stereo not given in full) | Active | – | – | –
19 | CO[C@@H]1C(C(CC(N)=O)N(C(=O)Nc2ccccc2C)C(CC(N)=O)C2O[C@@H]3OC(C)(C)O[C@@H]3[C@H]2OC)O[C@H]2OC(C)(C)O[C@H]21 (stereo not given in full) | inactive | 20 | – | –
20 | CO[C@@H]1[C@H]2OC(C)(C)O[C@H]2O[C@@H]1C1CC(=O)N(Cc2ccccc2)C(=O)N1Cc1ccc(Br)cc1 (stereo not given in full) | Active | – | – | 41

Row | Structure (SMILES) | Activity [1] | inhibition at 100 µM [2] [%] | inhibition at 10 min, 100 µM [3] [%] | Activity [4] [%]
21 | CC[C@H](C)[C@@H](C(=O)NC(CC(N)=O)C1O[C@H]2OC(C)(C)O[C@H]2[C@@H]1OC)N(C(=O)Nc1ccccc1C)c1ccco1 (stereo not given in full) | Active | – | – | –
22 | CO[C@@H]1[C@H]2OC(C)(C)O[C@H]2O[C@@H]1C1CC(=O)N(c2ccc(Cl)c(C)c2)C(=O)N1Cc1ccc(Br)cc1 (stereo not given in full) | inactive | 45 | – | –
23 | CO[C@@H]1[C@H]2OC(C)(C)O[C@H]2O[C@@H]1C1CC(=O)N(c2ccc(Cl)cc2)C(=O)N1 (stereo not given in full) | inactive | 52 | – | 24
24 | CCCCN1C(=S)N(c2cccc(Cl)c2)C(=O)CC1[C@H]1O[C@@H]2OC(C)(C)O[C@@H]2[C@H]1OC (stereo not given in full) | Active | – | – | 21
25 | COc1ccc(CN2C(=O)N(c3cccc(C(C)=O)c3)C(=O)CC2[C@H]2O[C@@H]3OC(C)(C)O[C@@H]3[C@H]2OCc2ccccc2)cc1 (stereo not given in full) | inactive | – | – | 13
26 | CCOc1ccc(N2C(=O)CC([C@H]3O[C@@H]4OC(C)(C)O[C@@H]4[C@H]3OC)N(c3ccco3)C2=O)cc1 (stereo not given in full) | inactive | 34 | 26 | –
27 | CCOC(=O)CC(C1O[C@H]2OC(C)(C)O[C@H]2[C@@H]1OC)N(Cc1ccccc1O)C(=O)Nc1cccc(C(C)=O)c1 (stereo not given in full) | Active | 41 | 23 | –
28 | CCCCN(C(=S)Nc1ccccc1Cl)C(CC(=O)OCC)C1O[C@H]2OC(C)(C)O[C@H]2[C@@H]1OC (stereo not given in full) | Active | – | – | 38
29 | COC(=O)CC(NC(=S)Nc1ccccc1)C1O[C@H]2OC(C)(C)O[C@H]2[C@@H]1OCc1ccccc1 (stereo not given in full) | Active | 69 | – | –
30 | CC(=O)c1ccc(N2C(=O)CC([C@H]3O[C@@H]4OC(C)(C)O[C@@H]4[C@H]3OCc3ccccc3)NC2=O)cc1 (stereo not given in full) | Active | 27 | – | 19
31 | CO[C@@H]1[C@H]2OC(C)(C)O[C@H]2O[C@@H]1C1CC(=O)N(c2cccc(C#N)c2)C(=O)N1Cc1ccc(Br)cc1 (stereo not given in full) | inactive | 37 | 19 | –
32 | CCCCc1ccc(N2C(=O)CC([C@H]3O[C@@H]4OC(C)(C)O[C@@H]4[C@H]3OC)N(c3ccco3)C2=O)cc1 (stereo not given in full) | inactive | 57 | – | –
33 | COc1ccc(CN2C(=O)N(c3cccc(C#N)c3)C(=O)CC2[C@H]2O[C@@H]3OC(C)(C)O[C@@H]3[C@H]2OC)cc1 (stereo not given in full) | inactive | 34 | 20 | –
34 | CCOC(=O)CC(NC(=O)[C@@H]1CCCN1)C1O[C@H]2OC(C)(C)O[C@H]2[C@@H]1OC (stereo not given in full) | Active | – | – | 28
35 | CCCCCCCCCCCCNC(CC(=O)NO)C1O[C@H]2OC(C)(C)O[C@H]2[C@@H]1OCc1ccccc1 (stereo not given in full) | Active | 98 | – | 57
36 | CCOC(=O)CC(NCCCCCCCCCCCCNC(CC(=O)OCC)C1O[C@@H]2OC(C)(C)O[C@@H]2[C@H]1OCc1ccccc1)C1O[C@H]2OC(C)(C)O[C@H]2[C@@H]1OCc1ccccc1 (stereo not given in full) | inactive | – | – | –
37 | CO[C@@H]1[C@H]2OC(C)(C)O[C@H]2O[C@@H]1C1CC(=O)N(c2cccc(C(C)=O)c2)C(=O)N1Cc1ccc(Br)cc1 (stereo not given in full) | inactive | – | 27 | –
38 | CO[C@@H]1[C@H]2OC(C)(C)O[C@H]2O[C@@H]1C1CC(=O)N(c2ccc(F)cc2)C(=O)N1c1ccco1 (stereo not given in full) | inactive | 70 | – | –
39 | CCCCCCCCCCCCCCCCNC(CC(=O)NO)C1O[C@H]2OC(C)(C)O[C@H]2[C@@H]1OC (stereo not given in full) | Active | 92 | – | 214
40 | CCOC(=O)CC(NC(=O)[C@@H](N)C(C)C)C1O[C@H]2OC(C)(C)O[C@H]2[C@@H]1OC (stereo not given in full) | Active | – | – | 20
